Measurements as given in patent US4025533A, “5-Bromo-5-nitro-2-alkylsubstituted-1,3-dioxane” (Eli Lilly and Company, priority 1976, dated 1977).
Converted amounts (≈) assume the structure as drawn.

How the values were obtained:
[1] = tested on: Aspergillus terreus; test: In Vitro Antifungal Activity, agar plates (Table III); format: cell-based; settings: 72 h, three days at 25° C., pH 5.7, read-out: Minimum Inhibitory Concentration
Experimental: (§1) Compounds A, B, and C were tested further to determine antifungal activity. The compounds were added to melted and cooled (50° C.) agar to obtain concentrations of 100, 50, 25, 12.5, 6.25 and 0.0 mcg per ml of agar. After the agar solidified, sterile cotton swabs were dipped in stock suspensions of the organisms (10^6 organisms per ml of physiological saline) and then streaked across the agar. After three days' incubation at 25° C., concentrations which prevented growth were recorded as the minimal inhibitory concentration. The composition of the medium used in this study was as follows:
(§2) Calcium carbonate -- 0.5 g
(§3) V-8 juice filtrate -- 200.0 ml
(§4) Distilled water q.s. -- 1000 ml
(§5) The pH was adjusted to 5.7.

[2] = tested on: Colletotrichum phomoides; test: as above; format: cell-based; settings: 72 h, three days at 25° C., pH 5.7, read-out: Minimum Inhibitory Concentration
Experimental: as §1, §2, §3, §4, §5

[3] = tested on: Saccharomyces pastorianus; test: as above; format: cell-based; settings: 72 h, three days at 25° C., pH 5.7, read-out: Minimum Inhibitory Concentration
Experimental: as §1, §2, §3, §4, §5

[4] = tested on: Rhodotorula glutinis; test: as above; format: cell-based; settings: 72 h, three days at 25° C., pH 5.7, read-out: Minimum Inhibitory Concentration
Experimental: as §1, §2, §3, §4, §5

[5] = tested on: Microsporum gypseum; test: as above; format: cell-based; settings: Nannizzia gypsea, 72 h, three days at 25° C., pH 5.7, read-out: Minimum Inhibitory Concentration
Experimental: as §1, §2, §3, §4, §5

[6] = tested on: Botrytis cinerea; test: as above; format: cell-based; settings: 72 h, three days at 25° C., pH 5.7, read-out: Minimum Inhibitory Concentration
Experimental: as §1, §2, §3, §4, §5

[7] = tested on: Fusarium oxysporum cubense; test: as above; format: cell-based; settings: 72 h, three days at 25° C., pH 5.7, read-out: Minimum Inhibitory Concentration
Experimental: as §1, §2, §3, §4, §5

[8] = tested on: Aspergillus fumigatus; test: as above; format: cell-based; settings: 72 h, three days at 25° C., pH 5.7, read-out: Minimum Inhibitory Concentration
Experimental: as §1, §2, §3, §4, §5

[9] = tested on: Penicillium notatum; test: as above; format: cell-based; settings: Penicillium chrysogenum, 72 h, three days at 25° C., pH 5.7, read-out: Minimum Inhibitory Concentration
Experimental: as §1, §2, §3, §4, §5

[10] = tested on: Chaetomium globosum; test: as above; format: cell-based; settings: 72 h, three days at 25° C., pH 5.7, read-out: Minimum Inhibitory Concentration
Experimental: as §1, §2, §3, §4, §5

[11] = tested on: Propionibacterium acnes; test: conventional tube dilution test, anaerobic; format: cell-based; settings: Cutibacterium acnes, medium pH 6.9, read-out: minimum inhibitory concentration
Experimental: For example, 5-bromo-2-methyl-5-nitro-1,3-dioxane (Compound C) was tested against Propionibacterium acnes (formerly called Corynebacterium acnes) in a conventional tube dilution test. A simultaneous test was run utilizing 2-bromo-2-nitropropane,1,3-diol (Compound A) and 5-bromo-5-nitro-1,3-dioxane (Compound B) as the antimicrobials.
The test against Propionibacterium acnes were run anaerobically in the following medium:
as §4
The pH of the medium was 6.9

[12] = tested on: Streptococcus faecalis; test: conventional tube dilution test (Table I); format: cell-based; settings: Enterococcus faecalis, 48 h, antibiotic Number 3 medium, two days at 37° C., read-out: Minimum Inhibitory Concentration
Experimental: (§6) The in vitro antimicrobial activities of Compounds A, B and C, 5-bromo-2-ethyl-5-nitro-1,3-dioxane (Compound D), 5-bromo-5-nitro-2-n-propyl-1,3-dioxane (Compound E), and 5-bromo-2-isopropyl-5-nitro-1,3-dioxane (Compound F) were determined concurrently against Pseudomonas aeruginosa, Staphylococcus aureus, Escherichia coli, and Streptococcus faecalis in a conventional tube dilution test. The medium used was antibiotic Number 3 [CFR 436.102(3)] and the concentration of organisms was 10^4 organisms per ml of medium, with each tube being inoculated with 0.1 ml of inoculum. The figures shown in Table I are the lowest concentrations in mcg of active compound/ml of medium where no growth occurred in the medium after two days' incubation at 37° C.

[13] = tested on: Pseudomonas aeruginosa; test: conventional tube dilution test (Table I); format: cell-based; settings: 48 h, antibiotic Number 3 medium, two days at 37° C., read-out: Minimum Inhibitory Concentration
Experimental: as §6

[14] = tested on: Escherichia coli; test: conventional tube dilution test (Table I); format: cell-based; settings: 48 h, antibiotic Number 3 medium, two days at 37° C., read-out: Minimum Inhibitory Concentration
Experimental: as §6

[15] = tested on: Staphylococcus aureus; test: conventional tube dilution test (Table I); format: cell-based; settings: 48 h, antibiotic Number 3 medium, two days at 37° C., read-out: Minimum Inhibitory Concentration
Experimental: as §6

[16] = prior art; cited from earlier work
[17] = tested on: Streptococcus faecalis; test: agar plate system (Table II); format: cell-based; settings: Enterococcus faecalis, antibiotic medium 1, 72 hours at 30° C., read-out: Minimum Inhibitory Concentration
Experimental: (§7) The antimicrobial activities of Compounds A, B, C, D, E and F were also determined in an agar plate system. The compounds were added to melted and cooled (50° C.) agar in twofold concentration increments from 50 mcg per ml of agar to 1.56 mcg per ml of agar. Antibiotic medium 1 [CFR 436.102(1)] was used for testing of Pseudomonas aeruginosa, Staphylococcus aureus, Escherichia coli, and Streptococcus faecalis, but antibiotic medium 22 [CFR 436.102(22)] was used for testing of Candida albicans and Aspergillus niger. Organism suspensions containing 10^6 organisms per ml were used as stock suspensions. Sterile cotton swabs were dipped in the suspensions and then streaked across the solidified agar. The figures shown in Table II were the lowest concentrations at which no growth occurred after 72 hours at 30° C. These values were interpreted as the minimum inhibitory concentration (MIC).

[18] = tested on: Pseudomonas aeruginosa; test: agar plate system (Table II); format: cell-based; settings: antibiotic medium 1, 72 hours at 30° C., read-out: Minimum Inhibitory Concentration
Experimental: as §7

[19] = tested on: Escherichia coli; test: agar plate system (Table II); format: cell-based; settings: antibiotic medium 1, 72 hours at 30° C., read-out: Minimum Inhibitory Concentration
Experimental: as §7

[20] = tested on: Staphylococcus aureus; test: agar plate system (Table II); format: cell-based; settings: antibiotic medium 1, 72 hours at 30° C., read-out: Minimum Inhibitory Concentration
Experimental: as §7

[21] = tested on: Aspergillus niger; test: agar plate system (Table II); format: cell-based; settings: antibiotic medium 22, 72 hours at 30° C., read-out: Minimum Inhibitory Concentration
Experimental: as §7

[22] = tested on: Candida albicans; test: agar plate system (Table II); format: cell-based; settings: antibiotic medium 22, 72 hours at 30° C., read-out: Minimum Inhibitory Concentration
Experimental: as §7

Which results are given for `O=[N+]([O-])C(Br)(CO)CO` [Compound A, 2-bromo-2-nitropropane-1,3-diol]?
MIC [1]: 25 µg/mL (≈ 125 µM); MIC [2]: > 100 µg/mL; MIC [3]: > 100 µg/mL; MIC [4]: 100 µg/mL (≈ 500 µM); MIC [5]: 50 µg/mL (≈ 250 µM); MIC [6]: 25 µg/mL (≈ 125 µM); MIC [7]: 25 µg/mL (≈ 125 µM); MIC [8]: < 6.25 µg/mL; MIC [9]: 100 µg/mL (≈ 500 µM); MIC [10]: < 6.25 µg/mL; MIC [11]: 6.25 µg/mL (≈ 31.3 µM); MIC [12]: 25 µg/mL (≈ 125 µM); MIC [13]: 12.5 µg/mL (≈ 62.5 µM); MIC [14]: 12.5 µg/mL (≈ 62.5 µM); MIC [15]: 25 µg/mL (≈ 125 µM); chemical stability towards alkali [16]: chemically unstable towards alkali; MIC [17]: 12.5 µg/mL (≈ 62.5 µM); MIC [18]: 6.25 µg/mL (≈ 31.3 µM); MIC [19]: 6.25 µg/mL (≈ 31.3 µM); MIC [20]: 12.5 µg/mL (≈ 62.5 µM); MIC [21]: > 50 µg/mL; MIC [22]: > 50 µg/mL
